≈ marks a conversion by molar mass, not a printed value.
Columns and labels:
[1] = system: pyocyanin produced by Pseudomonas aeruginosa strain PA14; assay: Pyocyanin assay; type: cell-based; conditions: administered to Pseudomonas aeruginosa
E. coli TolC mutants = assay: Bacterial cell entry test, LC-MS analysis; type: cell-based, Escherichia coli; conditions: concluded from fluorescence microscopy and LC-MS analysis
Cytotoxic activity [2] = type: cell-based; conditions: human, HCT-116 cells (colon carcinoma)
pancreatic elastase = conditions: previously listed in the literature; cited from earlier work
Cytotoxic activity [3] = type: cell-based; conditions: human, KB-3-1 cells (cervix carcinoma)
neurotensin = conditions: ref [25]; cited from earlier work

Molecule | inhibition of pyocyanin production (in words) [1] | cell entry capabilities for E. coli (authors' conclusion, in words) (E. coli TolC mutants) | IC50 at 5 days (Cytotoxic activity [2]) [µg/mL] | inhibition of pancreatic elastase (in words) (pancreatic elastase) | IC50 at 5 days (Cytotoxic activity [3]) [µg/mL] | IC50, neurotensin inhibitor (neurotensin) [µg/mL]
CC[C@H](C)[C@@H]1NC(=O)[C@@H](N)Cc2ccc(OC)c(c2)-c2cc3cc(c2O)Oc2ccc(cc2)C[C@@H](C(=O)O)NC(=O)[C@H](C3)NC1=O [cittilin A] | no inhibition of pyocyanin production | poor cell entry capabilities | 110 (≈ 175 µM) | moderate inhibitor | 74.8 (≈ 119 µM) | –
YIYY (bicyclic or more) [cittilin B] | – | – | – | – | – | 30

Reference: paper doi:10.1101/2020.05.25.114512v1 (bioRxiv, 2020)
